The target of experiment [1] is T1, human α2A‐adrenoceptor (Homo sapiens, UniProt P08913).
T1 sequence (P08913 1-465): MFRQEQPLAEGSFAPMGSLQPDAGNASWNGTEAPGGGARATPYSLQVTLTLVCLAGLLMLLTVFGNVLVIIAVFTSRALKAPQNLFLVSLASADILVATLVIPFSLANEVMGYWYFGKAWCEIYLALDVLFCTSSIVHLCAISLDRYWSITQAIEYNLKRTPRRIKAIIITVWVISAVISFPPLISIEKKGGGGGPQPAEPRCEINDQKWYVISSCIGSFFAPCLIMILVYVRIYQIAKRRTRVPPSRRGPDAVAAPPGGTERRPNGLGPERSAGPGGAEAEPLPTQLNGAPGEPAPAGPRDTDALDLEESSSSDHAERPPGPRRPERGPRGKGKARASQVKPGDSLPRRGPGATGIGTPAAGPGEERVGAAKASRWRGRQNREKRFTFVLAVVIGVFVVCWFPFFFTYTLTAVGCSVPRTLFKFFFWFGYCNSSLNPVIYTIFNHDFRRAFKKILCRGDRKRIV

For experiment [2], the target named is T2, human α2C‐adrenoceptor (Homo sapiens, UniProt P18825).
T2 sequence (P18825 1-462): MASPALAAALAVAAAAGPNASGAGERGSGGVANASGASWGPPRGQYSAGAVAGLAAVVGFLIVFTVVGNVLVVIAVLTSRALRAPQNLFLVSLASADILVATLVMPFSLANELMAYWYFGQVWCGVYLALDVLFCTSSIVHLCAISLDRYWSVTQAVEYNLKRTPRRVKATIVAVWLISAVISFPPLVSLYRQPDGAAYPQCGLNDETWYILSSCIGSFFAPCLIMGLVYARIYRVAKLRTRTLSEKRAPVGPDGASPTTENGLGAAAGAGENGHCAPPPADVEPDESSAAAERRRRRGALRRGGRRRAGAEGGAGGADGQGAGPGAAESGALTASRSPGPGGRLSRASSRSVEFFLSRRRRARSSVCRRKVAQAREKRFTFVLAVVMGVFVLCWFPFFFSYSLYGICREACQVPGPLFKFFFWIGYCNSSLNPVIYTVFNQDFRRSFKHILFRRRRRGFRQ

The target of experiment [3] is T2, human α2C‐adrenoceptor. In words: 3H‐rauwolscine whole cell binding in CHO‐α2C cells. Details: expressed in transfected cells; host or cells: CHO-K1 with CRE-SPAP reporter.
The target of experiment [4] is T1, human α2A‐adrenoceptor. Briefly: ERK1/2‐phosphorylation in CHO‐α2A cells. The class given is cell-based. Details: expressed in transfected cells; host or cells: CHO-K1 with CRE-SPAP reporter. The following applies: CHO‐α2A, maximum response compared to 10 μM PDBu.
Experiment [5] addresses T2, human α2C‐adrenoceptor. In words: ERK1/2‐phosphorylation in CHO‐α2C cells. The format is cell-based. Details: expressed in transfected cells; host or cells: CHO-K1 with CRE-SPAP reporter. The following applies: CHO‐α2C cells; for % 10 μM PDBu, ERK1/2‐phosphorylation: maximum response compared to 10 μM PDBu, mean ± SEM.
Experiment [6] deals with parent CHO cells (no transfected receptor). Details: method as in PMID 34355529. To be noted: non‐α‐mediated mechanism; cited from earlier work.
Experiment [7] has as its target T1, human α2A‐adrenoceptor. The source holds these as a separate data set.
Experiment [8] concerns the target T1, human α2A‐adrenoceptor. Briefly: 3H‐rauwolscine whole cell binding in CHO‐α2A cells. Further details: expressed in transfected cells; host or cells: CHO-K1 with CRE-SPAP reporter.
The subject of experiment [9] is parent CHO cells (no transfected receptor). In words: ERK1/2‐phosphorylation in parent CHO cells. The following applies: Cricetulus griseus, read-out: log EC50, ERK1/2‐phosphorylation in parent CHO cells (converted). The format is cell-based, Chinese hamster.
For experiment [10], the target named is T3, α1D‐adrenoceptor (Homo sapiens, UniProt P25100).
T3 sequence (P25100 1-572): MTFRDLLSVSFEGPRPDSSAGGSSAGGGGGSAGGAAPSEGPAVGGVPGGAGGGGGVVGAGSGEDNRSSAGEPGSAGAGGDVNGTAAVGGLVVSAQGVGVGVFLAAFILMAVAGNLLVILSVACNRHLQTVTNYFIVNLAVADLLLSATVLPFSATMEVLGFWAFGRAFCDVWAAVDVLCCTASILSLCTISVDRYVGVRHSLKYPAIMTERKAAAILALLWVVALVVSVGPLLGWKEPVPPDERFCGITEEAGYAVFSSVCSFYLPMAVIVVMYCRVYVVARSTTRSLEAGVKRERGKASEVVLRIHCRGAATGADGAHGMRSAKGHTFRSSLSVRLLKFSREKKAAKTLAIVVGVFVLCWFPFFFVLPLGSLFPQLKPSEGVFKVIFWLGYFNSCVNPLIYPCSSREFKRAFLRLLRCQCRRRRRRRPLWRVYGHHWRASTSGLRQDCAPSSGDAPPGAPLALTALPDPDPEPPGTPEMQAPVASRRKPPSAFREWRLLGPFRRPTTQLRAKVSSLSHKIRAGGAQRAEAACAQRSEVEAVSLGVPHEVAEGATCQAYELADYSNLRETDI
The following applies: CHO-α1D cells.

Experiment [11] concerns the target T4, α1A‐adrenoceptor (Homo sapiens, UniProt P35348).
T4 sequence (P35348 1-466): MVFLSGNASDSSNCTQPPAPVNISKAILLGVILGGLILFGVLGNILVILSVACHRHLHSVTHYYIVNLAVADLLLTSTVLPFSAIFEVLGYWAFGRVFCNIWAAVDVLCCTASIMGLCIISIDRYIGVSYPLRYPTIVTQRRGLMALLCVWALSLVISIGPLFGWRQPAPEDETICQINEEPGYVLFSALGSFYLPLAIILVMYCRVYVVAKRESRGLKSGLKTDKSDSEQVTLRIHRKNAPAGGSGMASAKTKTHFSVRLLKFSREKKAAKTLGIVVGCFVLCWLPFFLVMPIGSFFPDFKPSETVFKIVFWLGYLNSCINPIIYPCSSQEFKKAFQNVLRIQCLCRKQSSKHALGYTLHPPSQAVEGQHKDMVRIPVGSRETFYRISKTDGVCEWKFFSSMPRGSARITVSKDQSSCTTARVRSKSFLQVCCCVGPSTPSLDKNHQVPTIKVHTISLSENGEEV

The mark [12] stands for this setting: CHO‐α2C cells, % inhibition from the 3 μM forskolin control, mean ± SEM.
[13] abbreviates: CHO‐α2C cells, CRE‐SPAP production in the absence of forskolin.

Read-outs that look alike come from different tables or passages of the source.

Broadly, the IC50 is the concentration that gives 50% inhibition. By Kd is commonly meant a measure of binding affinity in units of concentration.

Regarding `Clc1ccc2nsnc2c1NC1=NCCN1` [Tizanidine], in experiment [1], the “% 3 μM forskolin, CRE‐SPAP (without forskolin)” value was 15.8 ± 4.7%. Also, the “% inhibition, CRE‐SPAP (with forskolin)” value in experiment [2] (setting [12]) was 72.1 ± 4.4%. In addition, in [2] (setting [13]), the “Log EC50 (Gs), CRE‐SPAP (without forskolin)” value (“Log EC50 … (without forskolin)” below) was “No response”. In addition, in experiment [2] (Log IC50 (Gi), CRE‐SPAP (with forskolin), CHO‐α2C cells, inhibition of 3 μM forskolin‐stimulated CRE‐SPAP production, given as negative log IC50, mean ± SEM), inhibition was half-maximal at 0.302 µM (IC50). Moreover, the Kd in experiment [3] (3H‐rauwolscine whole cell binding, living cells, negative log KD, mean ± SEM, read-out: Log KD, CHO‐α2C (converted)) was 1.48 µM; in experiment [3] (CHO‐α2C cells, 3H‐rauwolscine whole cell binding, given as negative log KD, mean only (SEM in Table 4), read-out: Log KD (converted)), 1.48 µM. Further, the entries for the “% 10 μM PDBu, ERK1/2‐phosphorylation” value in [4] and in experiment [5] were 135.7 ± 17.3% and 133.6 ± 17.9%, respectively.

As to `Cc1cc(C(C)(C)C)cc(C)c1CC1=NCCN1` [Xylometazoline], the “ERK1/2‐phosphorylation agonist response in parent cells” value in experiment [6] is given as “stimulate ERK1/2‐phosphorylation agonist responses”. Besides, in [7], the “% inhibition, CRE‐SPAP (with forskolin)” value stood at 73.9 ± 4.6%; it took 0.00741 µM to reach half-maximal inhibition (IC50); the “Log EC50 … (without forskolin)” value is listed as “No response”; the “Log efficacy ratio (KD/IC50)” value was 0.51. Besides, in [2], the “% inhibition, CRE‐SPAP (with forskolin)” value came to 57.2 ± 3.9%; the IC50 was 0.0631 µM; the “Log EC50 … (without forskolin)” value was “No response”; the “Log efficacy ratio (KD/IC50)” value is on record as 0.23. Also, in experiment [8], the affinity, expressed as Kd, was 0.024 µM; the “Selectivity ratio α2A vs α2B (higher affinity for α2A)” value is listed as 151; the “Selectivity ratio α2A vs α2C (higher affinity for α2A)” value was determined as 4.5. The Kd in [8] (Log KD, CHO‐α2A) is 0.024 µM. Further, in experiment [3], the Kd was 0.107 µM and the “Selectivity ratio α2B vs α2C (higher affinity for α2C)” value worked out at 33.9. The dissociation constant Kd in [3] (Log KD, CHO‐α2C) is 0.107 µM.

`CC(C)C[C@H]1C(=O)N2CCC[C@H]2[C@]2(O)O[C@](NC(=O)[C@@H]3C=C4c5cccc6[nH]c(Br)c(c56)C[C@H]4N(C)C3)(C(C)C)C(=O)N12` [Bromocriptine]: the EC50 in [9] is 0.117 µM. The “specific binding inhibited (early plateau)” value in [10] stood at 71.2 ± 3.4%.

On to `CS(=O)(=O)Nc1c(O)ccc2c1CCCC2C1=NCCN1` (centres unmarked) [A61603], for which the “higher α1A‐affinity than for any other α‐adrenoceptor” value in experiment [11] is 1000 fold. Also, in [2], the “Log efficacy ratio (KD/IC50)” value is recorded as greater than 2.68. The “% inhibition, CRE‐SPAP (with forskolin)” value in experiment [2] (setting [12]) was 80.5 ± 3.0%. The “Log EC50 … (without forskolin)” value in [2] (setting [13]) was “No response”. The “Log IC50 (Gi), CRE‐SPAP (with forskolin)” value in experiment [2] (CHO‐α2C cells, inhibition of 3 μM forskolin‐stimulated CRE‐SPAP production, given as negative log IC50, mean ± SEM) was −6.68 ± 0.09. In [3] (3H‐rauwolscine whole cell binding, no KD obtained, read-out: IC50 in binding, CHO‐α2C), the concentration for half-maximal inhibition (IC50) is greater than 100 µM. Besides, the “IC50 (log) in binding, no KD obtained” value in experiment [3] (CHO‐α2C cells, 3H‐rauwolscine whole cell binding, printed as log value in the Log KD column) is on record as “IC50 > −4”. In addition, the “% 10 μM PDBu, ERK1/2‐phosphorylation” value in experiment [5] worked out at 149.2 ± 30.3%. In addition, in [5] (given as negative log EC50, mean ± SEM), the “Log EC50, ERK1/2‐phosphorylation” value is on record as −7.26 ± 0.15.

These data come from article PMC9471048, “The signaling and selectivity of α‐adrenoceptor agonists for the human α2A, α2B and α2C‐adrenoceptors and comparison with human α1 and β‐adrenoceptors” (Pharmacology Research & Perspectives, 2022).
